# Entries after “also recorded” stand apart in the source; their conditions may differ.
# Legend:
# [1] = test system: Nrf2-dependent luciferase (ARE-element of the gene AKR1C2) in KeratinoSens cell line; assay: KeratinoSens assay, luciferase gene induction (OECD TG 442d); details: single chemicals; for Rating in the KeratinoSens assay (skin sensitization): threshold 1.5-fold induction
# Experimental: The level of skin sensitization can reliably and quantitatively be measured experimentally by the KeratinoSens® method, which measures the induction of Nrf2-dependent luciferase in a skin cell line.
# (§1) Compounds were tested using the commercial KeratinoSens® assay for skin sensitization. The KeratinoSens® test compares the potential skin sensitization risk of chemicals. […] KeratinoSens® cells were grown for 24 h in 96-well plates. The medium was then replaced with medium containing the test chemical and the solvent dimethylsulfoxide (DMSO) at a final level of 1% (v/v). Each compound was tested at 12 binary dilutions in the range from 0.98 to 2000 μM. Cells were incubated for 48 h with the test agents, and then luciferase activity and cytotoxicity were determined. This full procedure was repeated three times for each chemical. For each chemical in each repetition and at each concentration, the gene induction compared to DMSO controls and the wells with statistically significant induction over the threshold of 1.5 (i.e. 50% enhanced gene activity) were determined. Furthermore, the maximal fold-induction (Imax) and the EC1.5 value (concentration in μM for induction above the threshold) were calculated.
# (§2) All compositions were tested in the concentration range from 0.2-400 ppm (parts per million in weights per volume).
# KeratinoSens cells = assay: Cytotoxicity / cellular viability in the KeratinoSens assay; type: cell-based; details: single chemicals, 48 h
# Experimental: as §1, §2
# [2] = target: test peptide Cor1C-420 (Ac-NKKCDLF) (Homo sapiens, UniProt Q9ULV4, I423F); assay: Modified direct peptide reactivity assay with LC-MS detection of peptide adducts; details: for Peptide reactivity: quantification, % of parent peptide modified: pH 7.5
# Experimental: Alternatively, the sensitization potential can be quantified by measuring the reactivity of test chemicals with peptides.
# It is based on the fact that allergenic chemicals must react with a peptide/protein in order to be immunogenic.
# The samples were incubated for 24 h at 37° C. and analysed by LC-MS analysis on a VELOS PRO Mass spectrometer (Thermo […], San Jose, Calif., U.S.A.) operated in the ESI(+) mode.
# Mass spectra were recorded from 200-2000 amu. A ZORBAX Eclipse XDB-C18 column, 2.1 mm ID, 150 mm, 5-Micron (Agilent Technologies) was used. The mobile phase consisted of H2O (A) and methanol (B) each containing 0.1% formic acid (v/v). The solvent flow was 250 μl/min and the following gradient (ratio A:B) was used: 0 min, 95:5; 2 min, 40:60; 10 min, 2:98; 12 min, 2:98. The integration was performed with Xcalibur Quan Browser™.
# In order to detect formation of modified peptides, the specific ion trace for a new adduct with the mass of the test chemical added to the test peptide is extracted, and the peak of the peptide-adduct is integrated. Peptide adduct formation is a particular sensitive endpoint to determine reactive, and thus allergenic nature of compounds.
# [3] = 1 mM test chemical, 0.1 mM peptide, 24 h at 37° C.
"Peptide reactivity: quantification, % of parent peptide modified ([2]; 24 h, 1 mM)","Imax (fold maximal gene induction) ([1]; 0.98 to 2000 μM, 48 h) [fold]","Concentration for 1.5-fold gene induction (EC 1.5 in μM) ([1]; 48 h, n.i. = no induction above threshold of 1.5 (negative rating))","Peptide reactivity: adduct observation [2, 3]","Peptide reactivity: quantification, % of parent peptide modified [2, 3]","Peptide reactivity: adduct observation ([2]; 1 mM test chemical, 0.1 mM peptide, 24 h at 37° C., listed as II)","Peptide reactivity / adduct amount, fold lower as compared to Citral ([2]; relative to Citral) [fold]",SMILES,Rating in the KeratinoSens assay (skin sensitization) [1],Concentration for 50% Cytotoxicity (KeratinoSens cells) [µM]
8.1% of parent,–,–,–,–,–,–,"CC(C)=CCCC(C)=CC=O [Citral, 3,7-dimethyl-2,6-octadienal, reference compound]",highly active,95.5
–,1.40,n.i.,only traces were formed,"observed, 0.3% of parent","Extremely low activity,",27,"CC(C)=CCC(C)/C=C(\C)C=O (centres unmarked) [2,4,7-trimethyl-2,6,-octadienal]",non-sensitizing; also recorded: does not surpass the threshold for a positive rating up to the top dose,317.8
